Six compounds from ChEMBL document CHEMBL1133389, “Antihypertensive activity of substituted 2,3,8,8a-tetrahydro-7H-oxazolo[3,2-a]pyridinedicarboxylate enantiomers” (Bioorg Med Chem Lett, 2000) can be followed below.

What all share (assay type): functional, organism-based
Common to all, as to design: dose 50 mg/kg

For assay [1], the system named is Rattus norvegicus. Briefly: Tested for antihypertensive activity at the dose of 50 mg/kg in spontaneously hypertensive rats; active.
In assay [2] the test system is Rattus norvegicus. The assay is described as follows: Tested for antihypertensive activity at the dose of 50 mg/kg in spontaneously hypertensive rats; inactive.
Assay [3] has as its system Rattus norvegicus. Briefly: Tested for relative acute toxicity at the dose of 50 mg/kg after intraperitoneal administration in spontaneously hypertensive rats; active.
For assay [4], the system named is Rattus norvegicus. Briefly: Tested for reflex tachycardia at the dose of 50 mg/kg when administered intraperitoneally in spontaneously hypertensive rats; active.
Assay [5] deals with Rattus norvegicus. The assay is described as follows: Tested for relative acute toxicity at the dose of 50 mg/kg after intraperitoneal administration in spontaneously hypertensive rats; inactive.

SMILES strings stand for the structures. Activity calls are given as the source filed them. The rule behind the calls is not given here.

Take `CCOC(=O)[C@H]1[C@H](c2cccc([N+](=O)[O-])c2)C(C(=O)OC)=C(C)N2CCO[C@@]12C`: the outcome in the assay on Rattus norvegicus [1] was Active.

On to `CCOC(=O)[C@@H]1[C@@H](c2cccc([N+](=O)[O-])c2)C(C(=O)OC)=C(C)N2C[C@@H](C)O[C@]12C`, for which the outcome in the assay with Rattus norvegicus [2] was inactive. Turning to `CCOC(=O)[C@H]1[C@H](c2cccc([N+](=O)[O-])c2)C(C(=O)OC)=C(C)N2C[C@H](C)O[C@@]12C`, the outcome with Rattus norvegicus [1] was Active. Turning to `COC(=O)C1=C(C)N2C[C@@H](C)O[C@]2(C)[C@H](C(=O)OC)[C@H]1c1cccc(Cl)c1`, in the assay with Rattus norvegicus [3], the outcome was Active. `COC(=O)C1=C(C)NC(C)=C(C(=O)OC)C1c1ccccc1[N+](=O)[O-]`: the result in the assay with Rattus norvegicus [4] was Active. Take `COC(=O)C1=C(C)N2C[C@H](C)O[C@@]2(C)[C@@H](C(=O)OC)[C@@H]1c1cccc(Cl)c1`: the outcome with Rattus norvegicus [5] was inactive.
